Experiment: in vitro
Details: human, hela cells, % viability

SMILES | viability at 28.5 h, 10 µM | viability at 28.5 h, 10 µM (bulk resorufin, single well)
O=C1CC(N2CCN(Cc3ccc4c(c3)OCO4)CC2)C(=O)N1c1ccc(Cl)c(Cl)c1 (stereo not shown) [CBK074549] | 99.4% | 
CCOC(=O)c1c(NC(=O)CSc2nnc[nH]2)sc2c1CCCC2 [CBK265999] | 93.1% | 
CCOC(=O)N1CCC(NC(=O)N(CCC#N)C2CCCCC2)CC1 [CBK156384] | 90.9% | 
CC(c1nc(N)nc(N(C)C)n1)N(C)CCOc1ccccc1F (stereo not shown) [CBK306053] | 88.2% | 
Cc1cc(C)c2c(c1)-c1c(ssc1=S)C(C)(C)N2C(=O)CSc1nncn1C [CBK263035] | 106% | 
CS(=O)(=O)Nc1nn(-c2ccc(NC(=O)c3ccno3)cc2)c2ccccc12 [CBK048591] | 99.5% | 
Cc1nc(C)n(CC2CCCN2Cc2cn3ccccc3c2C#N)n1 (stereo not shown) [CBK304006] | 91% | 
CN(C)C(=O)[C@@]1(O)CCC2(c3ccc(Cl)cc3)CCCN(C)C2C1 (stereo partly shown) [CBK005234] | 92.8% | 
O=c1[nH]c(=O)n([C@H]2C[C@@H](O)[C@@H](CO)O2)cc1O [CBK201317] | 101% | 
O=C1CC2(CCN(C(=O)C3CCCC3)CC2)Oc2ccc(F)cc21 [CBK283686] | 80.2% | 
O=C(O)c1[nH]c(=O)[nH]c(=O)c1CN1CCCCC1 [CBK286688] | 96.8% | 
Nc1ncc(-c2cc(C(F)(F)F)cc(C(F)(F)F)c2)nc1-c1ccc(O)cc1 [CBK122503] | 98.3% | 
O=c1[nH]nc2c(S(=O)(=O)N3CCOCC3)cccn12 [CBK288469] | 94.1% | 
Cc1ccsc1CCNC(=O)C1(Oc2cccnc2C)CCNCC1 [CBK307374] | 84.2% | 
COc1cc(CCc2cc(O)n3nc(-c4cccc(C)c4)c(C)c3n2)on1 [CBK285691] | 99.8% | 
Cc1csc2c(C3CCN(C(=O)c4ccccn4)CC3)nc(C)n12 [CBK285244] | 77.4% | 
COc1ccc(CC(=O)N2CCC[C@@H](N)[C@@H]2c2ccccc2F)cc1 [CBK283456] | 102% | 
Cc1ccccc1NC1=NC(=O)C(CC(C)C)O1 (stereo not shown) [CBK074902] | 116% | 
COc1cc2c(cc1OC)CN(C(=O)Cc1ccccc1)CC2 [CBK122751] | 90.7% | 
CN(c1ccccc1)S(=O)(=O)c1cccc(NC(=O)Cc2csc(-c3ccco3)n2)c1 [CBK297792] | 75.9% | 
O=C(c1ccc2c(c1)OCO2)N1CCN(C(=O)c2ccc(Cl)cc2F)CC1 [CBK296685] | 99% | 
COCCN(Cc1cnn(C)c1)C(=O)c1cc(=O)c2cccc(F)c2[nH]1 [CBK306651] | 83.8% | 

SMILES | viability at 28.5 h, 10 µM | viability at 28.5 h, 10 µM (bulk resorufin, single well)
O=S(=O)(N1CCOCC1)N1CCN(CC(O)COc2ccc3cc(Br)ccc3c2)CC1 (stereo not shown) [CBK268840] | 103% | 
CNC(=O)c1sc2ccccc2c1C1CCN(Cc2nc3ccccc3n2C(C)C)C1 (stereo not shown) [CBK285929] | 98.4% | 
CC12CN3CC(C)(CN(C1)C3c1ccc([N+](=O)[O-])cc1)C2 (stereo not shown) [CBK262665] | 95.2% | 
COc1ccc(-n2c(C)c([N+](=O)[O-])c3ccc(O)cc32)cc1 [CBK115330] | 85% | 
O=C(NC(c1ccccc1)c1ccco1)C1CCN(Cc2cccc(Cl)c2)CC1 (stereo not shown) [CBK148295] | 103% | 
CCCC(=O)N1CCN(Cc2ccc3c(c2)OCO3)CC1 [CBK074367] | 92.7% | 
Cc1ccc(C)n1-c1ccc(CC(=O)O)cc1 [CBK116374] | 92.2% | 
c1ccc(-c2ccc(COc3cncc(N4CCNCC4)n3)s2)nc1 [CBK008960G] | 85.4% | 
CC(C)(C)NC(=O)CNS(=O)(=O)c1ccccc1 [CBK265807] | 85.5% | 
COc1cc(OC)cc(-c2[nH][nH]c(=O)c2CCN)c1 [CBK288414] | 110% | 
Cc1cc(C)nc(SCC(=O)Nc2cccc(C(=O)O)c2)n1 [CBK263214] | 101% | 
Cc1ccc(-n2ncc3c(=O)n(CC(=O)NC4CCCCC4)cnc32)cc1 [CBK287536] | 78.1% | 
CSc1ncc(Cl)c(C(=O)Nc2sc3c(c2C(=O)NCc2cccnc2)CCC3)n1 [CBK268710] | 95.9% | 
CC(C)(C)OC(=O)NCc1ccc(CNCc2cccc(Cl)c2)cc1 [CBK056704] | 108% | 
COc1ccc(COc2nccnc2N2CCCC2)cc1OC [CBK116613] | 94.8% | 
OCCC1CCCCN1c1cncc(-c2cccs2)n1 (stereo not shown) [CBK065758] | 104% | 
COc1ccc(Br)cc1S(=O)(=O)Nc1ccc(C(=O)O)cc1 [CBK034047] | 106% | 
Cc1nc2c(c(N3CCOCC3)n1)OCC(=O)N2 [CBK287939] | 94.5% | 
CC(=O)Nc1ccc(-c2ccc(C(=O)N3CCN(C(=O)OCc4ccccc4)CC3)cn2)cc1 [CBK160185] | 87.6% | 
Clc1cccc(Nc2nc(Br)cn3ccnc23)c1 [CBK066260] | 80.6% | 
COc1ccc(C(NC(=O)C2CCN(CCn3cnc4c3c(=O)n(C)c(=O)n4C)CC2)c2ccco2)cc1 (stereo not shown) [CBK148308] | 85.8% | 
COc1cc2ncc(C(=O)NCc3cccs3)c(O)c2cc1OC [CBK159998] | 91.9% | 

SMILES | viability at 28.5 h, 10 µM | viability at 28.5 h, 10 µM (bulk resorufin, single well)
Cc1ccc(NC(=O)CCSc2nnc3ccccn23)cc1 [CBK265563] | 93.7% | 
CN(CC1(C)COC1)C(=O)C(c1ccc(F)cc1)N(C)C (stereo not shown) [CBK281722] | 107% | 
CC1CCN(CCNC(=O)CCc2nc3ccc(Cl)cc3[nH]2)CC1 [CBK281599] | 88.7% | 
CCn1nc(C)c(NC(=O)CN(C)Cc2ccccc2C(F)(F)F)c1C [CBK306771] | 106% | 
CN1CC(C(=O)N2CCCC(c3cc4cccnc4[nH]3)C2)CC1=O (stereo not shown) [CBK284958] | 92.5% | 
O=C(O)COCC(=O)NC12CC3CC(CC(C3)C1)C2 [CBK287065] | 97.9% | 
Cc1cc(=O)[nH]c(CCNc2cc([C@H]3C[C@@H](N)C3)nc(C3CC3)n2)n1 [CBK307651] | 103% | 
CN1CCN(c2nccnc2-c2ccoc2)CC1 [CBK088834] | 98.6% | 
O=S(=O)(NC1CCCCC1)c1ccc(S(=O)(=O)N2CCOCC2)cc1 [CBK269618] | 102% | 
Cc1ccc(C)c(C(=O)CCC(=O)Nc2cccnc2)c1 [CBK266902] | 95.8% | 
CN1CCN(C(=O)Cn2cc(C(=O)NC3CCCCC3)ccc2=O)C(c2ccccc2)C1 (stereo not shown) [CBK286102] | 87.3% | 
CC1CCc2c(sc(NC(=O)c3ccn(C)n3)c2C#N)C1 (stereo not shown) [CBK304682] | 89.8% | 
O=[N+]([O-])c1ccccc1S(=O)(=O)N1CCN(C2CCCCCC2)CC1 [CBK264171G] | 95.4% | 
O=C(c1ccc(O)cc1)c1ccc(C(=O)O)c(C(=O)O)c1 [CBK261075] | 105% | 
Oc1cc(C(F)(F)F)nc2[nH]nc(-c3cccs3)c12 [CBK008498] | 106% | 
O=C1N=C(NCC2CCCCC2)OC1Cc1ccccc1 (stereo not shown) [CBK067023] | 94.1% | 
CCc1nc(N)nc(N2CCC3(CCC(CNC(C)=O)O3)CC2)c1C (stereo not shown) [CBK307168] | 100% | 
CC(C(=O)NC1(C#N)CCCCC1)N1CCOC(Cn2cccn2)C1 (stereo not shown) [CBK305337] | 88.9% | 
CCOC(=O)N1CCC2(CC1)OCc1ccc(-c3ccc(S(C)(=O)=O)nc3)cc1O2 [CBK174780] |  | 92%
O=C(c1[nH]c2ccccc2c1NS(=O)(=O)Cc1ccccc1)N1CCOCC1 [CBK050067] | 99.5% | 
CC(=O)Nc1ccc([C@@H](O)[C@H]2COCC(=O)N2C)cc1 [CBK289059] | 97.7% | 
CC(=O)OC1CCn2c1nc1ccccc12 (stereo not shown) [CBK113621] | 92.6% | 

SMILES | viability at 28.5 h, 10 µM | viability at 28.5 h, 10 µM (bulk resorufin, single well)
CC(C)C1C2CCCCC2=NN1C(=O)/C=C/C(=O)O (stereo not shown) [CBK286862] | 93.1% | 
O=C(O)CC1(CC(=O)N2CCC3(CC2)OCc2cc(F)ccc2O3)CCCC1 [CBK060858] |  | 94.7%
CC(=O)N1CCCc2cc(C(O)CN3CCC(C)CC3)ccc21 (stereo not shown) [CBK282588] | 87.3% | 
COc1ccc(C(=O)N(C)Cc2cnn(C)c2)cc1Br [CBK305149] | 84.8% | 
CN1CCC[C@H]1c1nc(-c2ccnc(NS(C)(=O)=O)c2)no1 [CBK288884] | 86.8% | 
CN1CCC(COC(=O)Nc2ccc3cc[nH]c3c2)CC1 [CBK200130] | 98.7% | 
Cn1nc(C2CCCN(C(=O)c3cccc(F)c3)C2)c2cccnc21 (stereo not shown) [CBK282155] | 85.8% | 
Cc1ccc(F)c(OC2(C(=O)O)CCN(Cc3cnc(C)nc3)CC2)c1 [CBK306860] | 100% | 
Fc1ccc2[nH]c3c(c2c1)CCOC31CCN(C/C=C\c2ccccc2)CC1 [CBK040141] | 70.1% | 
Cn1nc(NC(=O)Cc2ccsc2)c2c(N3CCOCC3)cccc21 [CBK307023] | 109% | 
Cc1cc(-c2nccnc2NCCCN2CCOCC2)cc(C)c1O [CBK036598] | 92% | 
CN(c1cccc(C#N)c1)C1CCN(c2nccn(C)c2=O)C1 (stereo not shown) [CBK304718] | 105% | 
Cc1ccc(S(=O)(=O)N(CC(=O)Nc2ccccc2C(=O)O)c2ccccc2)cc1 [CBK264034] | 94.6% | 
COc1ccc([C@@]23CC[C@@H](NC(=O)Nc4ccc(F)c(C#N)c4)C[C@@H]2N(C)CC3)cc1OC [CBK051659T] | 84% | 
Cc1ccc(CN(CC2CCOC2)C2CC(C)(C)NC(C)(C)C2)o1 (stereo not shown) [CBK283174] | 92.6% | 
CC(=O)N[C@H]1CC[C@]2(C)CCC([C@H](C)C(=O)N3CCCCC3)[C@H](O)[C@H]2[C@@H]1C (stereo partly shown) [CBK289439] | 89.4% | 
CCCNC(=O)c1sc(Nc2ccc(Cl)cn2)nc1C [CBK287850] | 98.4% | 
O=C(CN1CCC2(CC1)CN(C(=O)CO)c1ccccc12)c1ccsc1 [CBK144605T] | 86.8% | 
CCNC(=O)NC[C@H]1C[C@@H]2CCN1C[C@@H]2c1cc(-c2ccc(F)cc2)nn1C [CBK289110] | 88% | 
Cn1c(O)c(CCNc2cc([C@H]3C[C@@H](O)C3)nc(N)n2)cnc1=O [CBK306956] | 104% | 
O=C(CSc1nnc(-c2ccncc2)n1-c1ccccc1)Nc1ccc([N+](=O)[O-])cc1 [CBK266620] | 96.3% | 
O=C(Nc1ccc(S(=O)(=O)N2CCCCC2)cc1)c1nc(SCc2ccccc2)ncc1Cl [CBK268901] | 107% | 

From publication PMC12040169 (PLOS Biology, 2025)
